Measured values taken from patent US4666907A, “Phenothiazine and derivatives and analogs and use as leukotriene biosynthesis inhibitors” (Merck Frosst Canada, Inc., priority 1986, dated 1987).

Experiments:
[1] = tested on: asthmatic rats; experiment: Asthmatic rat assay (duration of dyspnoea after egg albumin aerosol); type: in vivo; conditions: po; for inhibition in vivo at 3 mg/kg: 3 mg/kg p.o.; for inhibition in vivo at 0.5 mg/kg: 0.5 mg/kg p.o.
Description: Rats were obtained from an inbred line of asthmatic rats. Both female and male rats from 200 to 300 g were used.
Egg albumin (EA), grade V, crystallized and lyophilized, was obtained from Sigma Chemical Co., St. Louis. Bordetella pertussis vaccine, containing 30×10^9 killed bacteria per ml was obtained from the Institut Armand-Frappier, Laval des Rapides, Quebec. Aluminum hydroxide was obtained from the Regeis Chemical Company, Chicago.
The challenge and subsequent respiratory recordings were carried out in a clear plastic box with internal dimensions 10×6×4 inches. The top of the box was removable; in use, it was held firmly in place by four clamps and an airtight seal was maintained by a soft rubber gasket. […] A Fleisch No. 0000 pneumotachograph was inserted into one end of the box and coupled to a Grass volumetric pressure transducer (PT5-A) which was then connected to a Beckman Type R Dynograph through appropriate couplers. While aerosilizing the antigen, the outlets were open and the pneumotachograph was isolated from the chamber. The outlets were closed and the pneumotachograph and the chamber were connected during the recording or the respiratory patterns. For challenge, 2 ml of a 3% solution of antigen in saline was placed into each nebulizer and the aerosol was generated with air from a small Potter diaphragm pump operating at 10 psi and a flow of 8 liters/minutes.
Rats were sensitized by injection (s.c.) 1 ml of a suspension containing 1 mg EA and 200 mg aluminum hydroxide in saline. Simultaneously, they received an injection (i.p.) of 0.5 ml of B. pertussis vaccine. They were used between days 14 and 18 postsensitization. In order to eliminate the serotonin component of the response, rats were pretreated intravenously 5 minutes prior to aerosol challenge with […] methylserzide. Rats were then exposed to an aerosol of 3% EA in saline for exactly 1 minute, then their respiratory profiles were recorded for a further 25-30 minutes. The duration of continuous dyspnoea was measured from the respiratory recordings.
Compounds were generally administered either intraperitoneally 1 hour prior to challenge or orally 11/2 hours prior to challenge. They were either dissolved in dimethylsulfoxide or suspended in 0.1% methocel and 0.5% Tween 80. The volume injected has 2 ml kg^-1 (intraperitoneally) or 10 ml kg^-1 (orally). Prior to oral treatment rats were starved overnight. Their activity was determined in terms of their ability to decrease the duration of symptoms of dyspnoea in comparison with a group of vehicle-treated controls. Usually, a compound was evaluated at a series of doses and an ED50 was determined. This was defined as the dose (mg/kg) which would inhibit the duration of symptoms by 50%.

[2] = tested on: PAF-induced hyperalgesia in Sprague-Dawley rats; experiment: PAF-induced hyperalgesia assay (vocalization threshold, rat paw); type: in vivo; conditions: po, read-out: PAF Induced Hyperalgesia Assay % inhibition; for responders at 3 mg/kg: 3 mg/kg p.o.
Experimental: Female Sprague-Dawley rats, 35-40 g were fasted overnight. Platelet activating factor, PAF, (L-lecithin B-acetyl O-alkyl) 1 μg/0.1 ml was given by subplantar injection in the rat paw. The compounds to be evaluated were homogenized in aqueous Vehicle (0.9% benzyl alcohol, 0.5% Tween 80 and 0.4% methylcellulose) and administered orally in a volume of 0.1 ml, 30 minutes prior to PAF.
Animals were tested 1, 2, 3 and 4 hours after PAF administration. The vocalization threshold, defined as the pressure (mm Hg) needed to evoke a squeak response, was recorded for both the injected and contralateral paw. No animal was subjected to pressure greater than 60 mm Hg. Hyperalgesia is defined as a decrease in vocalization threshold as compared to a normal paw. Percent inhibition of hyperalgesia was calculated as the proportion of animals with vocalization thresholds greater than 200% of controls.

Row | Compound | inhibition in vivo at 3 mg/kg [1] [%] | responders at 3 mg/kg [2] [%] | inhibition in vivo at 0.5 mg/kg [1] [%] | other results
1 | O=S1(=O)c2ccccc2Nc2ccc(O)cc21 | 70 | 60 |  | 
2 | CC(C)C(=O)Oc1ccc2c(c1Cl)Sc1ccccc1N2C [drawing 66] | 35 |  |  | responders at 1 mg/kg ([2]; 1 mg/kg p.o.): 70%
3 | COc1ccc2c(c1)Sc1c(cc(OC)c(O)c1Br)N2C(=O)OC(C)OC(C)=O (stereo not drawn) |  | 60 |  | inhibition in vivo at 5 mg/kg ([1]; 5.0 mg/kg p.o.): 42%
4 | c1ccc2c(c1)Nc1ccccc1S2 [drawing 61] |  | 50 | 53 | 
5 | COc1ccc2c(c1)Sc1c(cc(OC)c(OC(C)=O)c1Br)N2C(C)=O |  |  | 58 | responders at 0.03 mg/kg ([2]; 0.03 mg/kg p.o.): 60%
6 | O=S1(=O)c2ccccc2Nc2ccc(O)c(Cl)c21 |  |  |  | inhibition in vivo at 1.5 mg/kg ([1]; 1.5 mg/kg p.o.): 59%; responders at 1.2 mg/kg ([2]; 1.2 mg/kg p.o.): 50%
